PubChem BioAssay AID248 (DTP/NCI, 2004)
Toxic doses and inconclusive results are not listed. Rule as the data show it: active = T/C of 150% or more; inactive = T/C below 125%.

Tested on: L1210 leukemia ip in BDF1 mice, survival T/C
Assay: NCI In Vivo Anticancer Drug Screen. Data for tumor model L1210 Leukemia (intraperitoneal) in B6D2F1 (BDF1) mice
Settings: endpoint: mean survival time, higher = longer survival
Method in brief: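 Transplantable tumor model; survival measured in treated vs vehicle control mice. Value = treated/control.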

[1] = dose: 100.0 mg/kg/injection, schedule: Q01DX009 (ip), vehicle: Klucel (hydroxypropylcellulose) (HPC)
[2] = dose: 100.0 mg/kg/injection, schedule: Q04DX003 (ip), vehicle: Klucel (hydroxypropylcellulose) (HPC)
[3] = dose: 200.0 mg/kg/injection, schedule: Q01DX009 (ip), vehicle: Klucel (hydroxypropylcellulose) (HPC)
[4] = dose: 200.0 mg/kg/injection, schedule: Q04DX003 (ip), vehicle: Klucel (hydroxypropylcellulose) (HPC)
[5] = dose: 400.0 mg/kg/injection, schedule: Q01DX009 (ip), vehicle: Klucel (hydroxypropylcellulose) (HPC)
[6] = dose: 400.0 mg/kg/injection, schedule: Q04DX003 (ip), vehicle: Klucel (hydroxypropylcellulose) (HPC)
[7] = dose: 100.0 mg/kg/injection, schedule: Q01DX001 (ip), vehicle: carboxymethylcellulose (CMC)
[8] = dose: 200.0 mg/kg/injection, schedule: Q01DX001 (ip), vehicle: carboxymethylcellulose (CMC)
[9] = dose: 100.0 mg/kg/injection, schedule: Q01DX009 (ip), vehicle: saline with Tween-80
[10] = dose: 100.0 mg/kg/injection, schedule: Q04DX003 (ip), vehicle: saline with Tween-80
[11] = dose: 200.0 mg/kg/injection, schedule: Q01DX009 (ip), vehicle: saline with Tween-80
[12] = dose: 200.0 mg/kg/injection, schedule: Q04DX003 (ip), vehicle: saline with Tween-80
[13] = dose: 400.0 mg/kg/injection, schedule: Q01DX009 (ip), vehicle: saline with Tween-80
[14] = dose: 400.0 mg/kg/injection, schedule: Q04DX003 (ip), vehicle: saline with Tween-80
[15] = dose: 100.0 mg/kg/injection, schedule: Q01DX001 (ip), vehicle: saline
[16] = dose: 200.0 mg/kg/injection, schedule: Q01DX001 (ip), vehicle: saline
[17] = dose: 400.0 mg/kg/injection, schedule: Q01DX001 (ip), vehicle: saline
[18] = dose: 100.0 mg/kg/injection, schedule: Q01DX009 (ip), vehicle: saline
[19] = dose: 100.0 mg/kg/injection, schedule: Q04DX003 (ip), vehicle: saline
[20] = dose: 200.0 mg/kg/injection, schedule: Q01DX009 (ip), vehicle: saline
[21] = dose: 200.0 mg/kg/injection, schedule: Q04DX003 (ip), vehicle: saline
[22] = dose: 400.0 mg/kg/injection, schedule: Q01DX009 (ip), vehicle: saline
[23] = dose: 400.0 mg/kg/injection, schedule: Q04DX003 (ip), vehicle: saline

Measured: T/C

CCCCn1cc(S(=O)(=O)Nc2ccccc2)c(=O)[nH]c1=O
inactive: dose: 37.5 mg/kg/injection, schedule: Q01DX001 (ip), vehicle: saline with Tween-80 104 % of control | dose: 75.0 mg/kg/injection, schedule: Q01DX001 (ip), vehicle: saline with Tween-80 98 % of control | dose: 150.0 mg/kg/injection, schedule: Q01DX001 (ip), vehicle: saline with Tween-80 98 % of control

NCCCCCc1ccccc1
inactive: dose: 50.0 mg/kg/injection, schedule: Q04DX003 (ip), vehicle: saline 109 % of control

CN(/N=N/c1nc[nH]c1C(=O)NN)C1CCCCC1
inactive: dose: 50.0 mg/kg/injection, schedule: Q01DX001 (ip), vehicle: other 95 % of control | dose: 100.0 mg/kg/injection, schedule: Q01DX001 (ip), vehicle: other 101 % of control | dose: 200.0 mg/kg/injection, schedule: Q01DX001 (ip), vehicle: other 98 % of control

CCCCCCCCCCOC(=O)N1C(=O)NC(=O)C1c1ccccc1 (stereo not drawn)
inactive: [1] 104 % of control | [2] 103 % of control | [3] 104 % of control | [4] 97 % of control | [5] 96 % of control | [6] 93 % of control

O=C1c2ccccc2C(=O)C2OC12 (stereo not drawn)
inactive: dose: 3.0 mg/kg/injection, schedule: Q01DX009 (ip), vehicle: Klucel (hydroxypropylcellulose) (HPC) 97 % of control | dose: 6.0 mg/kg/injection, schedule: Q01DX009 (ip), vehicle: Klucel (hydroxypropylcellulose) (HPC) 93 % of control | dose: 12.0 mg/kg/injection, schedule: Q01DX009 (ip), vehicle: Klucel (hydroxypropylcellulose) (HPC) 97 % of control | dose: 12.5 mg/kg/injection, schedule: Q04DX002 (ip), vehicle: Klucel (hydroxypropylcellulose) (HPC) 102 % of control | dose: 25.0 mg/kg/injection, schedule: Q04DX002 (ip), vehicle: Klucel (hydroxypropylcellulose) (HPC) 94 % of control | dose: 50.0 mg/kg/injection, schedule: Q01DX001 (ip), vehicle: carboxymethylcellulose (CMC) 98 % of control | dose: 50.0 mg/kg/injection, schedule: Q04DX002 (ip), vehicle: Klucel (hydroxypropylcellulose) (HPC) 97 % of control | [7] 109 % of control | [8] 98 % of control | dose: 400.0 mg/kg/injection, schedule: Q01DX001 (ip), vehicle: carboxymethylcellulose (CMC) 104 % of control

Cc1cccc(C2C(=O)c3ccccc3C2=O)n1
inactive: [9] 88 % of control | [10] 95 % of control | [11] 89 % of control | [12] 99 % of control | [13] 91 % of control | [14] 88 % of control

Cn1c(=O)c2[nH]c(CCCSSCCCc3nc4c([nH]3)c(=O)n(C)c(=O)n4C)nc2n(C)c1=O
inactive: [15] 96 % of control | [16] 96 % of control | [17] 96 % of control

CC(=O)[O][Hg][CH]1CCCCC1O (stereo not drawn)
inactive: dose: 5.0 mg/kg/injection, schedule: Q01DX001 (ip), vehicle: saline 103 % of control | dose: 10.0 mg/kg/injection, schedule: Q01DX001 (ip), vehicle: saline 95 % of control | dose: 12.3 mg/kg/injection, schedule: Q01DX009 (ip), vehicle: saline with Tween-80 106 % of control | dose: 20.0 mg/kg/injection, schedule: Q01DX001 (ip), vehicle: saline 97 % of control | dose: 40.0 mg/kg/injection, schedule: Q01DX001 (ip), vehicle: saline 95 % of control | dose: 80.0 mg/kg/injection, schedule: Q01DX001 (ip), vehicle: saline 102 % of control

CCOC(=O)C(C(=O)OCC)=C(C)C
inactive: [9] 95 % of control | [10] 100 % of control | [11] 100 % of control | [12] 100 % of control | [13] 102 % of control | [14] 106 % of control

O=C(Oc1c(Cl)cc(S(=O)(=O)F)cc1Cl)c1ccc([N+](=O)[O-])cc1
inactive: dose: 100.0 mg/kg/injection, schedule: Q04DX002 (ip), vehicle: gum acacia 101 % of control | dose: 200.0 mg/kg/injection, schedule: Q04DX002 (ip), vehicle: gum acacia 99 % of control | dose: 400.0 mg/kg/injection, schedule: Q04DX002 (ip), vehicle: gum acacia 99 % of control

CC(C)=NOC(=O)Nc1ccc2c(c1)OCO2
inactive: [10] 109 % of control | [12] 97 % of control | [14] 101 % of control

CC(=O)Nc1c(Cl)cc(I)cc1Cl
inactive: [1] 103 % of control | [3] 103 % of control | [5] 97 % of control

CC1=C(C)CP(C)(=O)C1
inactive: [10] 93 % of control | [12] 91 % of control | [14] 86 % of control

NC(N)=NCCCCNCCCN=C(N)N
inactive: dose: 75.0 mg/kg/injection, schedule: Q01DX001 (ip), vehicle: saline 98 % of control | dose: 150.0 mg/kg/injection, schedule: Q01DX001 (ip), vehicle: saline 107 % of control

CCCCCC[Si](Br)(CCCCCC)CCCCCC
inactive: dose: 25.0 mg/kg/injection, schedule: Q01DX009 (ip), vehicle: saline 102 % of control | dose: 50.0 mg/kg/injection, schedule: Q01DX009 (ip), vehicle: saline 102 % of control | [15] 98 % of control | [18] 98 % of control | [16] 93 % of control | [17] 96 % of control

COC(=O)CCCNC(=O)/C=C1/c2cc(OC)c(OC)cc2CCC1S(=O)(=O)OC (stereo not drawn)
inactive: [18] 100 % of control | [19] 105 % of control | [20] 110 % of control | [21] 97 % of control | [22] 88 % of control | [23] 100 % of control

CCOC(=O)CN1C(=O)NC(CC)(CC)C1=O
inactive: [18] 96 % of control | dose: 100.0 mg/kg/injection, schedule: Q04DX003 (ip), vehicle: acetone 104 % of control | [20] 94 % of control | dose: 200.0 mg/kg/injection, schedule: Q04DX003 (ip), vehicle: acetone 107 % of control | [22] 105 % of control | dose: 400.0 mg/kg/injection, schedule: Q04DX003 (ip), vehicle: acetone 102 % of control

CCC(C)(C)c1ccc(O)c(C(=O)O)c1
inactive: [7] 90 % of control | [8] 95 % of control

CCOC(=O)N(C)c1ccccc1
inactive: [1] 101 % of control | [2] 97 % of control | [3] 105 % of control | [4] 97 % of control | [5] 101 % of control | [6] 97 % of control

O=Cc1ccc(C(=O)O)cc1O
inactive: [10] 98 % of control | [12] 102 % of control

CC(=O)CC(=O)NCCNCCNC(=O)CC(C)=O
inactive: [18] 88 % of control | [19] 91 % of control | [20] 95 % of control | [21] 98 % of control | [22] 97 % of control | [23] 100 % of control

CCOC(=O)C(C#N)(CC)C1=CCCCC1 (stereo not drawn)
inactive: [1] 106 % of control | [2] 97 % of control | [3] 93 % of control | [4] 97 % of control | [5] 97 % of control | [6] 102 % of control
